# In patent US10435392B2, “Bipyrazole derivatives as JAK inhibitors” (Incyte Corporation, priority 2013, dated 2019):
# Structures can show the parent of a compound that is named as a salt.
# Test system: human JAK1
# Assay: In vitro JAK kinase assay (HTRF, phosphorylation of a biotinylated peptide), JAK1
# Assay type: biochemical
# Conditions: ratio of IC50 values at 1 mM ATP
# Procedure: The catalytic activity of JAK1, JAK2 or JAK3 was assayed by measuring the phosphorylation of a biotinylated peptide. The phosphorylated peptide was detected by homogenous time resolved fluorescence (HTRF). […] Reactions were carried out at room temperature for 1 hour and then stopped with 20 μL 45 mM EDTA, 300 nM SA-APC, 6 nM Eu-Py20 in assay buffer (Perkin Elmer, Boston, Mass.). Binding to the Europium labeled antibody took place for 40 minutes and HTRF signal was measured on a Fusion plate reader (Perkin Elmer, Boston, Mass.).
row,Structure (SMILES),JAK2/JAK1
1,"Cc1[nH]ncc1-c1cnn(C2(CC#N)CN(c3cnc(C(=O)N[C@@H](C)C(F)(F)F)cn3)C2)c1 [Example 1, 5-[3-(Cyanomethyl)-3-(3′-methyl-1H,1′H-4,4′-bipyrazol-1-yl)azetidin-1-yl]-N-[(1S)-2,2,2-trifluoro-1-methylethyl]pyrazine-2-carboxamide trifluoroacetate]",>10
2,"Cc1n[nH]cc1-c1cnn(C2(CC#N)CN(c3cnc(C(=O)NC(C)C)cn3)C2)c1 [Example 2, 5-[3-(Cyanomethyl)-3-(3′-methyl-1H,1′H-4,4′-bipyrazol-1-yl)azetidin-1-yl]-N-isopropylpyrazine-2-carboxamide Trifluoroacetate]",>10
3,"Cc1n[nH]cc1-c1cnn(C2(CC#N)CN(c3ccc(C(=O)NC(C)C)cc3)C2)c1 [Example 3, 4-[3-(Cyanomethyl)-3-(3′-methyl-1H,1′H-4,4′-bipyrazol-1-yl)azetidin-1-yl]-N-isopropylbenzamide Trifluoroacetate]",>10

# Further lines, results first:
row,JAK2/JAK1,Structure (SMILES)
1,>10,"C[C@H](NC(=O)c1cc(F)c(N2CC(CC#N)(n3cc(-c4cn[nH]c4)cn3)C2)cc1F)C(F)(F)F [Example 5, 4-[3-(1H,1′H-4,4′-Bipyrazol-1-yl)-3-(cyanomethyl)azetidin-1-yl]-2,5-difluoro-N-[(1S)-2,2,2-trifluoro-1-methylethyl]benzamide Trifluoroacetate]"
2,>10,"Cc1n[nH]cc1-c1cn(C2(CC#N)CN(c3cnc(C(=O)NC(C)C)cn3)C2)nc1C [Example 6, 5-[3-(Cyanomethyl)-3-(3,3′-dimethyl-1H,1′H-4,4′-bipyrazol-1-yl)azetidin-1-yl]-N-isopropylpyrazine-2-carboxamide Trifluoroacetate]"
3,>10,"Cc1n[nH]c(C)c1-c1cnn(C2(CC#N)CN(c3cnc(C(=O)N[C@@H](C)C(F)(F)F)cn3)C2)c1 [Example 9, 5-[3-(Cyanomethyl)-3-(3′,5′-dimethyl-1H,1′H-4,4′-bipyrazol-1-yl)azetidin-1-yl]-N-[(1S)-2,2,2-trifluoro-1-methylethyl]pyrazine-2-carboxamide Trifluoroacetate]"
4,>10,"Cc1n[nH]cc1-c1cn(C2(CC#N)CN(c3cc(F)c(C(=O)N[C@@H](C)C(F)(F)F)cc3F)C2)nc1CO [Example 13, 4-{3-(Cyanomethyl)-3-[3-(hydroxymethyl)-3′-methyl-1H,1′H-4,4′-bipyrazol-1-yl]azetidin-1-yl}-2,5-difluoro-N-[(1S)-2,2,2-trifluoro-1-methylethyl]benzamide]"
